Test results from patent US9505769B2 (ASCENEURON SA, priority 2013, dated 2016).

Biological target: T1, human muscarinic acetylcholine M1 receptor (Homo sapiens, UniProt P11229)
T1 construct: expressed in transfected cells; host or cells: CHO-K1
T1 sequence (P11229 1-460): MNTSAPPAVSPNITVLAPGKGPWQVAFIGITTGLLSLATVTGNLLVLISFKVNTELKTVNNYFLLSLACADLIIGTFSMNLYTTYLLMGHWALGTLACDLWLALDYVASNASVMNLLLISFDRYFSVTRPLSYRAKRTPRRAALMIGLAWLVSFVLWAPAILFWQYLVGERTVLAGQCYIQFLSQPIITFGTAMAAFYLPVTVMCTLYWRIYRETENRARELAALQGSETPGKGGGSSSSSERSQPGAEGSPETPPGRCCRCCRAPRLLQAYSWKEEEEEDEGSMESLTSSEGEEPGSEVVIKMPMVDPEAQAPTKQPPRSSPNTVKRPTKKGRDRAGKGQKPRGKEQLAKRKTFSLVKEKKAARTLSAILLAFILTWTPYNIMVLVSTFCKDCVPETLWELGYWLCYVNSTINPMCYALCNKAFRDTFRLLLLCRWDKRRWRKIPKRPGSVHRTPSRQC
Experiment: M1 PAM Assay (IP-One HTRF, IP1 accumulation in M1-CHO cells)
Format: cell-based
Conditions: CHO-K1 cells stably transfected with human M1 receptor; compounds added with EC20 of acetylcholine (25 nM), 30 min; intracellular IP1 by IP-One HTRF; read-out: M1 PAM EC50
Method: Then diluted compounds (0.6% DMSO final concentration) are added together with EC20 of acetylcholine and incubated with the cells for 30 min at 37° C., 5% CO2.
CHO-K1 cells stably transfected with human muscarinic acetylcholine M1 receptor are cultured in Ham's F12 medium containing 10% heat inactivated fetal calf serum, 2 mM L-glutamine and Penicillin-Streptomycin grown in a humidified atmosphere at 5% CO2/95% air at 37° C.

| EC50 [nM] | Structure (SMILES) |
| --- | --- |
| 1000 to 3000 | CCOC(=O)N1CCC(Oc2cc(F)ccc2C(=O)N2Cc3nn4c(C)c(Cl)c(C)nc4c3C2)CC1 [Example 28, 4-[2-(6-Chloro-5,7-dimethyl-1H,3H-2,4,7a,8-tetraaza-cyclopenta[a]indene-2-carbonynl)-5-fluoro-phenoxy]-piperidine-1-carboxylic acid ethyl ester] |
| 1000 to 3000 | Cc1nc2c3c(nn2c(C)c1Cl)CN(C(=O)c1ccccc1O[C@H]1COC[C@@H]1O)C3 (racemic) [Example 21, (anti)-(3-chloro-2,4-dimethyl-7H-pyrrolo[3′,4′:3,4]pyrazolo[1,5-a]pyrimidin-8(9H)-yl)(2-((4-hydroxytetrahydrofuran-3-yl)oxy)phenyl)methanone] |
| < 200 | Cc1nc2c3c(nn2c(C)c1Cl)CN(C(=O)c1ccc(F)cc1OCCN1CCCC1)C3 [Example 16, (3-Chloro-2,4-dimethyl-7H-pyrrolo[3′,4′:3,4]pyrazolo[1,5-a]pyrimidin-8(9H)-yl)(4-fluoro-2-(2-pyrrolidinoethoxy)phenyl)methanone] |
| 1000 to 3000 | Cc1nc2c3c(nn2c(C)c1Cl)CN(C(=O)c1ccc(F)cc1OCCN1CCC[C@H]1C)C3 (single isomer, unassigned) [Example 44] |
